{"source": "patent US20130259929A1", "about": "“USE OF A PHOSPHOPEPTIDE ABLE TO BLOCK HER3/P85 INTERACTION FOR THE TREATMENT OF HER2 HYPER-EXPRESSING TUMOURS” (priority 2010, published 2013)", "key": {"HER3": {"system": "HER3", "experiment": "HER3 expression level (Western blot) after peptide transfection", "type": "cell-based, human", "details": "after peptide treatment (FIG. 4A); poorly appreciable in MDA-MB-453", "description": "(§1) Treatments and lmmunodecorations. […] Briefly the cells have been plated at 5×10^5 concentration in 60 mm plates. […] At the end of the treatment the cells have been lysed with RIPA buffer [150 mM NaCl, 1% NP-40, 0,5% sodium deoxycholate (DOC), 0.1% SDS, 50 mM TrisHCl (pH 8), 1 mM PMSF, 1 mM EGTA, 50 mM NaF, 50 mM Na3VO4 and protease inhibitors (Roche, Milano, IT)] in order to analyze the expression levels of phosphorylated and total ErbB-3, ErbB-2, ERK and HSP-70 proteins. In order to analyze the levels of Akt phosphorylation and expression, the cells have been lysed in NP-40 buffer [1% NP-40, 10% glycerol, 137 mM NaCl, 20 mM TrisHCl (pH 7.4), 50 mM NaF, 1 mM PMSF, 5 mM Na3VO4, protease inhibitors (Roche, Milano, IT)]. Cell lysates have been incubated on ice for 20 minutes and centrifuged at 14000 rpm for 20 minutes. RIPA buffer obtained cell extracts have been boiled for 5 minutes at 95° C., while NP40 buffer lysed samples have been boiled at 65° C. for 5 minutes. Samples have been subjected to SDS-PAGE and transferred on nitrocellulose filters (Bio-Rad, Milan, IT). Then the filters have been incubated with interest antibodies, washed and incubated with specific secondary horse radish peroxidase (HRP) conjugated antibodies. After thorough washing, nitrocellulose peroxidase activity has been detected by chemiluminescence (Lite-blot-Euroclone, Milano, IT)"}, "p85 and HER3 interaction": {"molecular_target": "T1, p85 and HER3 interaction (Homo sapiens, UniProt P27986)", "T1 construct": "Whole cell lysates have been imunoprecipitated with anti-p85 antibody; endogenous in cells; host or cells: MCF7, BT474, MDA-MB-453", "T1 sequence (P27986 whole entry)": "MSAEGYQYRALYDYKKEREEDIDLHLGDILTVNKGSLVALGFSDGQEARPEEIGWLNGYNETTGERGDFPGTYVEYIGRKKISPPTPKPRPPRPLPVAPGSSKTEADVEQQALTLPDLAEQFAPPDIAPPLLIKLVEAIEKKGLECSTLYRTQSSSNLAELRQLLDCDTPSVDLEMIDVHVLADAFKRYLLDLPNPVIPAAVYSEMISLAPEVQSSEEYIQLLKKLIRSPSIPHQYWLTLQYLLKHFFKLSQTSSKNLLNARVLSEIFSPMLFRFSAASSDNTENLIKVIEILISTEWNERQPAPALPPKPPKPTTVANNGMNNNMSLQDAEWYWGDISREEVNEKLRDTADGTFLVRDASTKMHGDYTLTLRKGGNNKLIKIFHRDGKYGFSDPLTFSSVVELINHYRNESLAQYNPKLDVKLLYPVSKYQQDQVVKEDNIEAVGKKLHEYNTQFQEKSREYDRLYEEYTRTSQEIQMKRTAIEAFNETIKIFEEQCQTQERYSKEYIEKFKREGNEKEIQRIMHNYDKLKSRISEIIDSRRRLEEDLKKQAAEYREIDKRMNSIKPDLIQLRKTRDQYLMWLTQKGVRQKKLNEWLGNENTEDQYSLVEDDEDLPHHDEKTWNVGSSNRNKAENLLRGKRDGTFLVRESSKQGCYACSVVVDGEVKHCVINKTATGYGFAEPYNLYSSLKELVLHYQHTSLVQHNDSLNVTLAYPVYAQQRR", "experiment": "Immunoprecipitation with anti-p85, blot anti-HER3, in transfected cells", "type": "cell-based", "details": "three cell lines, 48 hr after Lipofectamine transfection (FIG. 2B)", "source_text": "Immunoprecipitation. MCF7, BT474 and MDA-MB-453 cell lines have been plated at 5×10^5 concentration in 60 mm plates. On subsequent day cells have been transfected with 1257 phosphopeptide and contrrol phosphopeptide. […] Whole cell lysates have been imunoprecipitated with anti-p85 antibody (#06-496) in the presence of protein G (Pierce, Milan, IT). Whole proteins and immunocomplexes then have been subjected to 8% SDS-PAGE and transferred on nitrocellulose filter. The proteins have been detected by immunodecoration using anti-ErbB3 and anti-p110α antibodies.\n(§2) The peptide has been transfected using Lipofectamine in all three cell lines. […] This binding is required in order PI3K kinase to be activated."}, "[1]": {"system": "PI3K activity measured as Akt phosphorylation", "experiment": "Akt phosphorylation (Western blot) after peptide transfection", "type": "cell-based, human", "details": "for inhibition of PI3K activity measured as inhibition level of Akt phosphorylation: MCF7 cells, peptide transfection at different doses (FIG. 12)", "description": "(§3) Peptide transfection. In order to inhibit the p85 and ErbB3 interaction, MCF7, BT474 and MDA-MB-453 cell lines have been transfected using 80, 100, and 180 μg, respectively, of the following phosphopeptides:\nas §1"}, "[2]": {"molecular_target": "T2, p85 and p110a (PI3K catalytic sub-unit) interaction (Homo sapiens, UniProt P27986)", "T2 construct": "Whole cell lysates have been imunoprecipitated with anti-p85 antibody; endogenous in cells; host or cells: MCF7, BT474, MDA-MB-453", "T2 sequence (P27986 whole entry)": "as above", "experiment": "Immunoprecipitation with anti-p85, blot anti-p110α, in transfected cells", "type": "cell-based", "details": "transfected cells (FIG. 2D)", "description": "Immunoprecipitation. MCF7, BT474 and MDA-MB-453 cell lines have been plated at 5×10^5 concentration in 60 mm plates. On subsequent day cells have been transfected with 1257 phosphopeptide and contrrol phosphopeptide. After 40 hours the cells have been washed two times with cold PBS and extracted with lysis buffer [(50 mM Tris HCl (pH 7.4), 250 mM NaCl, 0.1% Triton X-100, 5 mM EDTA, 50 mM NaF, 1 mM PMSF, 5 mM Na3VO4 e 50 mmol/L protease inhibitors (Roche, Milan, IT)]. Whole cell lysates have been imunoprecipitated with anti-p85 antibody (#06-496) in the presence of protein G (Pierce, Milan, IT). Whole proteins and immunocomplexes then have been subjected to 8% SDS-PAGE and transferred on nitrocellulose filter. The proteins have been detected by immunodecoration using anti-ErbB3 and anti-p110α antibodies.\nas §2"}, "MCF7 xenograft": {"system": "MCF7 xenograft", "experiment": "Electroporation tumour therapy of MCF7 xenografts", "type": "in vivo, SCID mice", "description": "Xeno-grafts. In vivo tests have been carried out using 40 day old SCID female mice (Harlan Laboratories, Milan, IT). At day 0, animals have been totally anesthetized with intramuscular injection of 400 μg/animal (average weight 25 g) of Zoletil (Virbac) containing 0.12% Xylor (Xylazine), and transplanted subcutaneously (s.c.), in intrascapular mouse region with pellet of […] (1.7 mg/sustained release pellet over 60 days, Innovative Research of America, Sarasota, Fla.). On the next day, 5×10^6 proliferating and scr and 1257 peptide previously transfected, as above described, MCF7 or BT474 cells, have been re-suspended in 0.1 ml of Matrigel (BD Biosciences) and subcutaneously inoculated in each mouse. […] Tumour growth has been monitored two times weekly using calibration along two orthogonal axes: length (L) and […]. The tumour volume (V) has been calculated using the formula V=L*(W2)/2. All the procedures relating to animals and treatment thereof have been carried out according institutional guidelines.\nElectroporation tumour therapy. […] A dilute solution of 1257 peptide (75 ug) in 15 ul of sterile PBS has been directly injected in each xenograft, which subsequently has been electrode pulsed. PBS diluted scr peptide has been used as control, according to same procedure. As a further control we have analyzed two groups of not peptide injected animals, except that one of two was subjected to electroporation. Therapy has been repeated once weekly, and tumour size monitored up to 70 days.\nTumour size has been measured at regular intervals (alternate days) using a caliber and tumour volume has been calculated as above described. In order to minimize animal pain during the electroporation, tests have been carried out under total anesthesia. All the procedures concerning animals and treatment thereof have been carried out according to institutional guidelines.\nIn an attempt to use an experimental approach mimicking human therapy, scr or 1257 phosphopeptides has been administered directly into tumour. The administration of the peptide has been carried out by injection and successive electroporation in order to allow the phosphopeptide penetration. This technique facilitating the drug absorption from the tumour is used for human mainly to treat superficial lesions like melanomas, skin tumours or cutaneous metastases, but currently it is also used for carcinomas during pre-operation sessions. The peptide administration has been carried out when the tumour volume was 200 mm^3."}, "HER2": {"system": "HER2", "experiment": "HER2 expression level and ErbB-2 homodimer (Western blot) after peptide transfection", "type": "cell-based, human", "description": "as §1"}, "MAPK phosphorylation": {"system": "MAPK phosphorylation", "experiment": "MAPK (ERK1/2) phosphorylation (Western blot) after peptide transfection", "type": "cell-based, human", "details": "MCF7, BT474 and MDA-MB-453 cells (FIG. 4A); Herceptin where combined", "description": "as §3\nas §1, with “Samples have been subjected to SDS-PAGE and transferred on nitrocellulose filters (Bio-Rad, Milan, IT). Then the filters have been incubated with interest antibodies, washed and incubated with specific secondary horse radish peroxidase (HRP) conjugated antibodies.” left out"}, "[3]": {"details": "intra-tumour injection + electroporation once weekly, MCF7"}}, "note": "Non-standard residues stand in square brackets, D forms with d. No end group written: not given here. pY = N[C@@H](Cc1ccc(OP(=O)(O)O)cc1)C(=O)O"}
{"substance": "RDGGGPGGDpYAAMGACPA (RDGGGPGGD[pY]AAMGACPA; listed as Homo sapiens) [1257 phosphopeptide]", "values": [{"measurement": "total level of HER3", "setting": "HER3", "result": "decrease"}, {"measurement": "inhibition of p85 and HER3 interaction", "setting": "p85 and HER3 interaction", "result": "inhibits effectively p85 and HER3 interaction"}, {"measurement": "phosphorylation of Akt", "setting": "[1]; MCF7, BT474 and MDA-MB-453 cells (FIG. 4A), Herceptin where combined", "result": "inhibition the phosphorylation of Akt"}, {"measurement": "inhibition of PI3K activity measured as inhibition level of Akt phosphorylation", "setting": "[1]", "result": "remarkably inhibits Akt phosphorylation"}, {"measurement": "inhibition of PI3K activity measured as inhibition level of Akt phosphorylation", "setting": "[1]; listed as 1257 peptide", "result": "high efficiency"}, {"measurement": "time after transfection for which Akt phosphorylation is inhibited", "setting": "[1]; stability inside of cell (FIG. 5A)", "result": "up to 6 days"}, {"measurement": "inhibition of p85 and p110a interaction", "setting": "[2]", "result": "inhibits p85 from interacting with p110a"}, {"measurement": "apoptosis in tumours (TUNNEL assay)", "setting": "MCF7 xenograft; immunohistochemistry of electroporation treated tumours (FIG. 9A)", "result": "go in apoptosis"}, {"measurement": "proliferation in tumours (Ki67 assay)", "setting": "MCF7 xenograft; immunohistochemistry of electroporation treated tumours (FIG. 9B)", "result": "low proliferating index"}, {"measurement": "inhibition of tumour growth compared to control not treated tumours", "setting": "MCF7 xenograft; [3]", "result": 58, "unit": "%"}, {"measurement": "inhibition of tumour growth compared to scr peptide inoculated tumours", "setting": "MCF7 xenograft; [3]", "result": 50, "unit": "%"}, {"measurement": "total level of HER2", "setting": "HER2; after peptide treatment (FIG. 4A), poorly appreciable in MDA-MB-453", "result": "decrease"}, {"measurement": "ErbB-2 homodimer levels", "setting": "HER2; not reducing conditions (FIG. 5B)", "result": "favours the formation of ErbB-2 homodimer"}, {"measurement": "MAPK phosphorylation", "setting": "MAPK phosphorylation", "result": "inhibition of MAPK phosphorylation"}]}
